In assay [1] the test system is wheat (Triticum aestivum, variety "TRISO"). In words: Root growth assay, seed treatment, wheat. The format is in vivo. The settings on record: Root Growth of 100 set as standard (untreated control), wet root weight 16 (±2) days post treatment. The source says:
(§1) Plant roots are a highly proliferative tissue which allows to be seen as a reliable target organ in order to screen for plant growth regulators. The results obtained are regarded as an indication for the overall effects on a plant of plant growth regulators identified by such a system. By using this root assay one is enabled to determine the effect of a seed treatment to root growth and/or germination and/or changes in habitat of germinated plants in order to identify the possible use as a yield enhancer. Two seeds of wheat (Triticum aestivum, variety “TRISO”) or 1 seed of maize (Zea mays, variety “LORENZO”) per hole in a plastic tray which contains an architecture of 8×13 holes were placed on compost soil covered with sand. These seeds were treated with 100 μl/hole, which creates an application volume of approx. 1200 l/ha, of a compound solution at active ingredient rates equivalent to 100, 10 and 1 g a.i./ha of each compound using an robotic application system (Lizzy Spray Robotics). Six replicates in a row of each compound and concentration were done. The outer rim of the above defined plastic tray was untreated to avoid false negative effects and the middle row (No. 7) was used as untreated control. The treated seeds were allowed to dry for approx. 4 hours and subsequently covered with sand and watered. The trays were stored in climate chambers with 14 hours lighting at a temperature of 24° C. (±2) at daytime and 16° C. (±2) at night and relative humidity (rH) of 60% and daily watered. Assessments were done 16 (±2) days post treatment by counting the germinated plants and assessing the phytotoxicity symptoms and percentage. In addition, the roots were washed out and the shoots were cut directly above the seed and the wet roots were placed on dry paper towels for approximately 30 minutes and weighted afterwards. This procedure provides a similar grade of moisture to the roots so that a comparison of the weights is possible.
(§2) The effects observed concerning Root Growth given in column 2 (Root Growth of “100” is set as the standard) are directed to concentrations that are equivalent to 100, 10, 1 g a.i./ha, each.

Assay [2] concerns maize (Zea mays, variety "LORENZO"). Put plainly: Root growth assay, seed treatment, maize. In kind it is in vivo. The settings on record: Root Growth of 100 set as standard (untreated control), wet root weight 16 (±2) days post treatment.
Text: as §1, §2

Consider `O=C1Nc2ccc(I)cc2C1=NNc1ncc(C(F)(F)F)cc1Cl` [Compound 1.1], for which the “Root Growth” value in assay [1] (1 g a.i./ha) is 209; in assay [1] (10 g a.i./ha), 93; in assay [1] (100 g a.i./ha), 170.

Consider `O=C1Nc2ccc(Br)cc2C1=NNc1c(F)c(F)cc(F)c1F` [Compound 1.2], for which the “Root Growth” value is recorded as 69 in assay [2] (1 g a.i./ha); 116 in assay [2] (10 g a.i./ha); 567 in assay [2] (100 g a.i./ha); 198 in assay [1] (1 g a.i./ha); 228 in assay [1] (10 g a.i./ha); 274 in assay [1] (100 g a.i./ha).

As to `O=C1Nc2ccc(Br)cc2C1=NNc1ccc(Cl)cc1` [Compound 1.4], the results for the “Root Growth” value in assay [2] (1 g a.i./ha), in assay [2] (10 g a.i./ha) and in assay [2] (100 g a.i./ha) were 105, 125 and 99, respectively.

For the compound `O=C1Nc2ccc(Br)cc2C1=NNc1cc(Cl)cc(Cl)c1` [Compound 1.5], the “Root Growth” value was 149 in assay [1] (1 g a.i./ha), 117 in assay [1] (10 g a.i./ha) and 161 in assay [1] (100 g a.i./ha).

Consider `Cc1ccc(NN=C2C(=O)Nc3ccc(Br)cc32)cc1` [Compound 1.6], for which the entries for the “Root Growth” value in assay [2] (1 g a.i./ha), in assay [2] (10 g a.i./ha) and in assay [2] (100 g a.i./ha) were 149, 140 and 137, respectively.

As to `O=C1Nc2ccc([N+](=O)[O-])cc2C1=NNc1ncc(C(F)(F)F)cc1Cl` [Compound 1.8], the entries for the “Root Growth” value in assay [2] (1 g a.i./ha), in assay [2] (10 g a.i./ha) and in assay [2] (100 g a.i./ha) were 174, 100 and 48, respectively.

Take `O=C1Nc2ccc(Cl)cc2C1=NNc1cccc([N+](=O)[O-])c1` [Compound 1.10]: the “Root Growth” value was found to be 126 in assay [2] (1 g a.i./ha), 107 in assay [2] (10 g a.i./ha) and 102 in assay [2] (100 g a.i./ha).

In the case of `Cc1ccc(NN=C2C(=O)Nc3ccc([N+](=O)[O-])cc32)cc1Cl` [Compound 1.12], the “Root Growth” value in assay [2] (1 g a.i./ha) is on record as 148; in assay [2] (10 g a.i./ha), 88; in assay [2] (100 g a.i./ha), 114.

With `O=C1Nc2ccc(F)cc2C1=NNc1c(F)c(F)cc(F)c1F` [Compound 1.18], the “Root Growth” value came out at 150 in assay [2] (1 g a.i./ha), 85 in assay [2] (10 g a.i./ha) and 170 in assay [2] (100 g a.i./ha).

In the case of `NS(=O)(=O)c1ccc(NN=C2C(=O)Nc3ccc(F)cc32)cc1` [Compound 1.23, 4-[2-(5-Fluoro-2-oxo-1,2-dihydro-3H-indol-3-ylidene)-hydrazino]-benzenesulfonamide], the “Root Growth” value worked out at 135 in assay [1] (1 g a.i./ha), 61 in assay [1] (10 g a.i./ha) and 65 in assay [1] (100 g a.i./ha).

With `O=C1Nc2ccc(I)cc2/C1=C1/Nc2ccccc2/C1=N\O` [Compound 2.1, 5-Iodoindirubin-3′-oxime], the “Root Growth” value turned out to be 135 in assay [1] (1 g a.i./ha), 151 in assay [1] (10 g a.i./ha) and 122 in assay [1] (100 g a.i./ha).

With `CCON=C1C(=C2C(=O)Nc3ccc(Br)cc32)Nc2ccccc21` [Compound 2.4, 5-Bromoindirubin-3′-ethyloxime], the “Root Growth” value worked out at 184 in assay [1] (1 g a.i./ha), 115 in assay [1] (10 g a.i./ha) and 62 in assay [1] (100 g a.i./ha).

For `O=C1Nc2ccc(F)cc2C1=C1Nc2ccccc2C1=NO` [Compound 2.7], the “Root Growth” value in assay [2] (1 g a.i./ha) worked out at 174; in assay [2] (10 g a.i./ha), 159; in assay [2] (100 g a.i./ha), 118; in assay [1] (1 g a.i./ha) it was 182; in assay [1] (10 g a.i./ha), 390; in assay [1] (100 g a.i./ha), 172.

These data come from patent US20080227640A1, “Plant Growth Regulation” (Bayer CropScience GmbH, priority 2004, published 2008).
